Experimental data: patent US20040138137A1, “Alloferons - immunomodulatory peptides” (Entopharm Co., Ltd., priority 1999, published 2004)
Like-named read-outs stand apart in the source and are kept apart here. Marks after values point to notes of the source that are not given here. Ends that are not written are not given here.

How the values were obtained:
[1] = test system: human peripheral blood lymphocytes; K562 cancer cells; assay: Cytotoxic activity of human peripheral blood lymphocytes against K562 cancer cells
Procedure: (§1) H3-uridine labeled K562 human leukemia cells were used as targets for a cytotoxic lymphocytes' attack. […] Then the proportion of killed and normal target cells and the corresponding cytotoxicity indices were determined in control and experimental groups.
(§2) The lymphocytes were diluted up to 2×10^6 cells/ml and immediately used for the cytotoxicity analysis.

[2] = test system: peripheral blood lymphocytes (PBL) in cancer patients; A431; assay: PBL cytotoxicity in cancer patients, A431 targets; settings: for Cytotoxicity index, %: A431, lymphocyte:target 20:1
Procedure: as §1, §2
(§3) Two kinds of target cells were used in the study simultaneously: the K562 cell line originated from erythromyeloid leukemia cells and the A431 cell line originated from the solid colorectal tumor. The proportion of lymphocytes and target cells (E/T ratio) in the trial was 20:1.

[3] = test system: peripheral blood lymphocytes (PBL) in cancer patients; K562; settings: 18 cancer patients; for Positive responses proportion, K562 or A531: either target
Procedure: as §1, §2, §3

[4] = test system: peripheral blood lymphocytes (PBL) in healthy donors; K562 cell line; assay: PBL cytotoxicity in healthy donors, K562 targets; settings: for Cytotoxicity index, M ± m, %: healthy donor 16, K562, 5 ng/ml, lymphocyte:target 20:1, control −3.5 ± 7.4; for Donors responding by statistically approved increase of cytotoxic activity against K562 or A431: out of 17 healthy donors
Procedure: as §1, §2, §3

[5] = test system: peripheral blood lymphocytes (PBL) in healthy donors; A431 cell line; settings: 17 healthy donors
Procedure: as §1, §2, §3

[6] = test system: fat cells; settings: therapeutic and 10-fold administration
[7] = test system: mouse germ cells; assay: Dominant lethal mutations in the mouse germ cells; format: in vivo; settings: 15 mg/kg
[8] = test system: mouse spleen lymphocytes; K562 human leukemia cells
Procedure: as §1

[9] = test system: E. coli test-line PQ37; assay: DNA SOS-reparation; format: cell-based
[10] = Toxicity evaluation, panel of in vitro and in vivo models (overall statement); settings: in vivo and in vitro studies
Procedure: The toxicity of alloferon was tested using a panel of in vitro and in vivo models.

[11] = Acute toxicity in rats; format: in vivo
[12] = therapeutic and 10-fold administration
[13] = subcutaneous injection 1.5 and 15 mg/kg into pregnant rats
[14] = test system: mouse bone marrow cells; settings: single dose 0.5 and 15 mg/kg and fivefold dose 0.5 mg/kg
[15] = test system: Salmonella tiphimurium; assay: Ames test; format: cell-based; settings: 0.1-1000 microgram/Petri dish; 3 test line
[16] = Acute toxicity in mice; format: in vivo; settings: 500-6000 mg/kg in mice
[17] = Subacute and chronic toxicity in rats; format: in vivo; settings: 0.2, 2 and 20 mg/kg once a day during 90 days
[18] = therapeutic and 10-fold administration; remark: listed apart in the source
[19] = therapeutic and 10-fold administration; remark: listed apart in the source
[20] = test system: human peripheral blood lymphocytes; A431 tumor cells; assay: Cytotoxic activity of human PBL against A431 tumor cells, alloferon 1 analogs; settings: 5 ng/ml; A431 targets; control −6.0 ± 8.1
Procedure: The mononuclear fraction isolated from the blood of healthy donors and target cell of the A431 cell line were co-incubated in the presence of one of the preparations: alloferon 1, alloferon 3, alloferon 4 or interferon-alpha 2b (positive control). The preparation's concentration in all cases was 5 ng/ml. Cytotoxicity index excess over the untreated control was used as the efficacy criterion.

[21] = test system: human influenza virus A strain A/Aichi/2/68 (cerotype H3N2); format: in vivo, mice
[22] = patient 11, Uterus cancer, control 93.3 ± 1.0
[23] = patient 14, Non-Hodgkin lymphoma, control −40.0 ± 20.5
[24] = 17 healthy donors, K562 or A431

Interferon-alpha 2b
Efficacy compared to alloferon at 0.05-0.5 ng/ml ([1]; 5 ng/ml): less effective
Positive responses proportion, A431 ([2]; 18 cancer patients): 8/18 = 44%
Cytotoxicity index, % [2, 22]: 93.5 ± 0.9%
Cytotoxicity index, % [2, 23]: 26.0 ± 8.9 %
Positive responses coincidence: Donors selectively sensitive to the preparation ([3]; K562 or A431): 4/18 = 22%
Positive responses coincidence: Interferon and alloferon sensitive donors ([3]; K562 or A431): 7/18 = 38%
Positive responses proportion, K562 or A531 ([3]; listed as Interferon): 10/18 = 56%
Positive responses proportion, K562 or A531 ([3]; listed as interferon): 56%
Positive responses proportion, K562 ([3]; positive response = statistically significant increase of lymphocyte cytotoxicity index): 6/18 = 33%
Positive responses coincidence: Donors selectively sensitive to the preparation [4, 24]: 1/17 = 6%
Positive responses coincidence: Interferon and alloferon sensitive donors [4, 24]: 9/17 = 53%
Positive responses proportion, K562 or A531 ([4]; 17 healthy donors, either target): 10/17 = 59%
Positive responses proportion, K562 ([4]; 17 healthy donors, positive response = statistically significant increase of lymphocyte cytotoxicity index): 7/17 = 41%
Cytotoxicity index, M ± m, % [4]: 5.0 ± 4.7%
Donors responding by statistically approved increase of cytotoxic activity against K562 or A431 [4]: 10 donors
Positive responses proportion, A431 [5]: 4/17 = 24%

HGVSGHGQHGVHG [Alloferon 1]
Indirect reaction of fat cells degranulation [6]: Fat cells degranulation rate was not changed under
Dominant lethal mutations in the mouse germ cells [7]: Alloferon in the dose 15 mg/kg did not induce
Effective in vitro concentration, stimulation of mouse spleen lymphocytes' cytotoxic activity [8]: 0.05 to 50 ng/mL
Concentration from which PBLs' cytotoxicity against K562 was significantly increased [1]: ≥ 0.0005 nanogram/ml
Effective in vitro concentration, stimulation of human peripheral blood lymphocytes' cytotoxic activity [1]: 0.0005 to 500 ng/mL
DNA SOS-reparation, DNA-damaging activity [9]: Alloferon has no DNA-damaging activity in the E. coli
Overall toxicity (words) ([10]; listed as Alloferon): practically nontoxic
Overall toxicity (words) ([10]; listed as alloferon): No signs of acute or chronic toxicity
Overall toxicity (words) ([10]; listed as alloferon 1): Neither an acute nor a chronic toxicity
Acute toxicity, animal growth, feeding, macroscopical structure of organs, injection place ([11]; 300-5000 mg/kg in rats): highest dose. No changes in animal growth, feeding,
Toxic/therapeutic dose ratio ([11]; rats): ratio >35700 times
Acute toxicity, mortality ([11]; single subcutaneous and intragastric administration, 300-5000 mg/kg in rats): Mortality was not registered in any dose including
Immune complexes reaction [12]: The reaction was not found under alloferon
Embriotoxicity and influence on the reproductive function [13]: Alloferon administration did not cause negative
Effective in vitro concentration, stimulation of peripheral blood lymphocytes' cytotoxic activity in cancer patients ([2]; cancer patients): 5 ng/mL
Cytotoxicity index, % [2, 22]: 94.3 ± 0.4%
Cytotoxicity index, % [2, 23]: 15.3 ± 4.8 %
Chromosome aberrations in the mouse bone marrow cells [14]: fivefold dose 0.5 mg/kg did not induce chromosome
Ames test, gene mutations [15]: microgram/Petri dish did not induce gene mutations
Acute toxicity, animal growth, feeding, macroscopical structure of organs, injection place [16]: highest dose. No changes in animal growth, feeding,
Acute toxicity, mortality ([16]; single subcutaneous and intragastric administration): Mortality was not registered in any dose including
Subacute and chronic toxicity, mortality [17]: None animal died during 90 day period.
Subacute and chronic toxicity, physiological, hematological, biochemical, pathomorphological and histological data [17]: testicles, ovary) data did not show negative changes
Conjunctive probe [18]: The reaction was not found under alloferon
Reaction of delayed hypersensitivity [19]: The reaction was not found under alloferon
Cytotoxicity index, M ± m, % [4]: 18.5 ± 1.7 %
Donors responding by statistically approved increase of cytotoxic activity against K562 or A431 [4]: 10 donors
Anaphylactic shock (10-fold therapeutic dose, registered in 1 male, 12 guinea pigs): dosage. Minimal response (short term unrest, nose
Anaphylactic shock (therapeutic dosage, guinea pigs): No signs of anaphylaxy were found at therapeutic

VSGHGQHGVH [Alloferon 3]
Average cytotoxicity index, M ± m, % [20]: 60.2 ± 2.7%

CC(N)C12CC3CC(CC(C3)C1)C2 (stereo not drawn) [Remantadin]
Mortality 10 days after virus inoculation, % ([21]; 1000 microgram per mouse per os, control 65): 5*** %
Protection from lethal pulmonary lesions caused by the influenza virus ([21]; mouse, in vivo, sc): effectively protected
